Data as given in PubChem BioAssay AID192 (DTP/NCI, 2004).
Where “and” joins values, the source holds several entries; their conditions need not be identical. Equal entries are not always repeated. Toxic doses and inconclusive results are not listed.

Test system: BDF1 mice, B16 melanoma ip, median survival T/C
Assay: NCI In Vivo Anticancer Drug Screen. Data for tumor model B16 Melanoma (intraperitoneal) in B6D2F1 (BDF1) mice
Settings: endpoint: median survival time, higher = longer survival
Method in brief: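 The ratio T/C compares compound-treated mice with vehicle-treated controls, using survival or tumor size as the endpoint in a transplantable tumor model.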

Compound: O=C1c2ccccc2C(=O)c2c(NCCNCCO)ccc(NCCNCCO)c21
- T/C (dose: 0.25 mg/kg/injection, schedule: Q01DX009 (ip), vehicle: saline with Tween-80): 124 % of control
- T/C (dose: 0.25 mg/kg/injection, schedule: Q01DX009 (ip), vehicle: saline): 110 % of control and 111 % of control
- T/C (dose: 0.5 mg/kg/injection, schedule: Q01DX009 (ip), vehicle: saline with Tween-80): 118 % of control
- T/C (dose: 0.5 mg/kg/injection, schedule: Q01DX009 (ip), vehicle: saline): 118 % of control
- T/C (dose: 1.0 mg/kg/injection, schedule: Q01DX009 (ip), vehicle: other): 124 % of control
- T/C (dose: 1.0 mg/kg/injection, schedule: Q01DX009 (ip), vehicle: saline with Tween-80): 152 % of control
- T/C (dose: 1.0 mg/kg/injection, schedule: Q02DX009 (ip), vehicle: saline): 159 % of control
- T/C (dose: 1.0 mg/kg/injection, schedule: Q03HX016 (ip), vehicle: acid diluted with saline): 161 % of control
- T/C (dose: 1.0 mg/kg/injection, schedule: Q03HX024 (ip), vehicle: acid diluted with saline): 167 % of control
- T/C (dose: 2.0 mg/kg/injection, schedule: Q01DX009 (ip), vehicle: acid diluted with saline): 183 % of control and 208 % of control
- T/C (dose: 2.0 mg/kg/injection, schedule: Q01DX009 (ip), vehicle: saline with Tween-80): 175 % of control
- T/C (dose: 2.0 mg/kg/injection, schedule: Q01DX009 (ip), vehicle: water): 168 % of control
- T/C (dose: 2.0 mg/kg/injection, schedule: Q03HX008 (ip), vehicle: acid diluted with saline): 157 % of control
- T/C (dose: 2.0 mg/kg/injection, schedule: Q03HX016 (ip), vehicle: acid diluted with saline): 202 % of control
- T/C (dose: 2.0 mg/kg/injection, schedule: Q03HX024 (ip), vehicle: acid diluted with saline): 209 % of control
- T/C (dose: 2.0 mg/kg/injection, schedule: Q03HX024 (ip), vehicle: saline): 123 % of control
- T/C (dose: 4.0 mg/kg/injection, schedule: Q01DX005 (ip), vehicle: saline): 151 % of control
- T/C (dose: 4.0 mg/kg/injection, schedule: Q01DX005 (iv), vehicle: saline): 106 % of control
- T/C (dose: 4.0 mg/kg/injection, schedule: Q01DX009 (ip), vehicle: Klucel (hydroxypropylcellulose) (HPC)): 180 % of control
- T/C (dose: 4.0 mg/kg/injection, schedule: Q01DX009 (ip), vehicle: saline with Tween-80): 154 % of control and 188 % of control
- T/C (dose: 4.0 mg/kg/injection, schedule: Q01DX009 (ip), vehicle: water): 169 % of control and 172 % of control and 211 % of control
- T/C (dose: 4.0 mg/kg/injection, schedule: Q01DX009 (sc), vehicle: acid diluted with saline): 121 % of control
- T/C (dose: 4.0 mg/kg/injection, schedule: Q01DX009 (sc), vehicle: saline): 108 % of control
- T/C (dose: 4.0 mg/kg/injection, schedule: Q02DX009 (ip), vehicle: saline): 170 % of control and 188 % of control
- T/C (dose: 4.0 mg/kg/injection, schedule: Q03HX008 (ip), vehicle: acid diluted with saline): 206 % of control
- T/C (dose: 4.0 mg/kg/injection, schedule: Q03HX016 (ip), vehicle: acid diluted with saline): 204 % of control
- T/C (dose: 4.0 mg/kg/injection, schedule: Q03HX024 (ip), vehicle: saline): 207 % of control
- T/C (dose: 8.0 mg/kg/injection, schedule: Q01DX005 (ip), vehicle: acid diluted with saline): 192 % of control
- T/C (dose: 8.0 mg/kg/injection, schedule: Q01DX005 (iv), vehicle: saline): 106 % of control
- T/C (dose: 8.0 mg/kg/injection, schedule: Q01DX009 (ip), vehicle: Klucel (hydroxypropylcellulose) (HPC)): 158 % of control
- T/C (dose: 8.0 mg/kg/injection, schedule: Q01DX009 (ip), vehicle: other): 180 % of control
- T/C (dose: 8.0 mg/kg/injection, schedule: Q01DX009 (ip), vehicle: saline with Tween-80): 159 % of control and 190 % of control
- T/C (dose: 8.0 mg/kg/injection, schedule: Q01DX009 (oral), vehicle: acid diluted with saline): 98 % of control
- T/C (dose: 8.0 mg/kg/injection, schedule: Q01DX009 (sc), vehicle: acid diluted with saline): 111 % of control
- T/C (dose: 8.0 mg/kg/injection, schedule: Q01DX009 (sc), vehicle: saline): 123 % of control
- T/C (dose: 8.0 mg/kg/injection, schedule: Q02DX009 (ip), vehicle: saline): 191 % of control
- T/C (dose: 8.0 mg/kg/injection, schedule: Q03HX008 (ip), vehicle: acid diluted with saline): 192 % of control
- T/C (dose: 8.0 mg/kg/injection, schedule: Q04DX003 (ip), vehicle: acid diluted with saline): 195 % of control
- T/C (dose: 8.0 mg/kg/injection, schedule: Q08DX002 (ip), vehicle: acid diluted with saline): 178 % of control
- T/C (dose: 8.0 mg/kg/injection, schedule: Q08DX002 (ip), vehicle: saline): 119 % of control
- T/C (dose: 16.0 mg/kg/injection, schedule: Q01DX001 (ip), vehicle: acid diluted with saline): 156 % of control
- T/C (dose: 16.0 mg/kg/injection, schedule: Q01DX001 (oral), vehicle: saline): 108 % of control
- T/C (dose: 16.0 mg/kg/injection, schedule: Q01DX001 (sc), vehicle: acid diluted with saline): 102 % of control
- T/C (dose: 16.0 mg/kg/injection, schedule: Q01DX005 (ip), vehicle: saline): 166 % of control
- T/C (dose: 16.0 mg/kg/injection, schedule: Q01DX005 (iv), vehicle: saline): 116 % of control
- T/C (dose: 16.0 mg/kg/injection, schedule: Q01DX009 (ip), vehicle: Klucel (hydroxypropylcellulose) (HPC)): 173 % of control
- T/C (dose: 16.0 mg/kg/injection, schedule: Q01DX009 (ip), vehicle: saline with Tween-80): 186 % of control
- T/C (dose: 16.0 mg/kg/injection, schedule: Q01DX009 (oral), vehicle: acid diluted with saline): 109 % of control
- T/C (dose: 16.0 mg/kg/injection, schedule: Q01DX009 (oral), vehicle: saline): 101 % of control
- T/C (dose: 16.0 mg/kg/injection, schedule: Q01DX009 (sc), vehicle: acid diluted with saline): 156 % of control
- T/C (dose: 16.0 mg/kg/injection, schedule: Q02DX009 (ip), vehicle: saline): 180 % of control
- T/C (dose: 16.0 mg/kg/injection, schedule: Q03HX008 (ip), vehicle: acid diluted with saline): 209 % of control
- T/C (dose: 16.0 mg/kg/injection, schedule: Q03HX008 (ip), vehicle: saline): 117 % of control
- T/C (dose: 16.0 mg/kg/injection, schedule: Q03HX016 (ip), vehicle: acid diluted with saline): 98 % of control
- T/C (dose: 16.0 mg/kg/injection, schedule: Q04DX003 (ip), vehicle: acid diluted with saline): 204 % of control
- T/C (dose: 16.0 mg/kg/injection, schedule: Q08DX002 (ip), vehicle: acid diluted with saline): 173 % of control
- T/C (dose: 16.0 mg/kg/injection, schedule: Q08DX002 (ip), vehicle: saline): 112 % of control
- T/C (dose: 18.75 mg/kg/injection, schedule: Q01DX001 (ip), vehicle: Klucel (hydroxypropylcellulose) (HPC)): 111 % of control
- T/C (dose: 32.0 mg/kg/injection, schedule: Q01DX001 (ip), vehicle: acid diluted with saline): 157 % of control
- T/C (dose: 32.0 mg/kg/injection, schedule: Q01DX001 (ip), vehicle: saline): 157 % of control
- T/C (dose: 32.0 mg/kg/injection, schedule: Q01DX001 (oral), vehicle: saline): 106 % of control
- T/C (dose: 32.0 mg/kg/injection, schedule: Q01DX001 (sc), vehicle: acid diluted with saline): 100 % of control
- T/C (dose: 32.0 mg/kg/injection, schedule: Q01DX005 (ip), vehicle: saline): 181 % of control
- T/C (dose: 32.0 mg/kg/injection, schedule: Q01DX005 (iv), vehicle: saline): 119 % of control
- T/C (dose: 32.0 mg/kg/injection, schedule: Q01DX009 (oral), vehicle: acid diluted with saline): 113 % of control
- T/C (dose: 32.0 mg/kg/injection, schedule: Q01DX009 (oral), vehicle: saline): 112 % of control
- T/C (dose: 32.0 mg/kg/injection, schedule: Q01DX009 (sc), vehicle: acid diluted with saline): 114 % of control
- T/C (dose: 32.0 mg/kg/injection, schedule: Q01DX009 (sc), vehicle: saline): 100 % of control
- T/C (dose: 32.0 mg/kg/injection, schedule: Q02DX009 (ip), vehicle: saline): 196 % of control
- T/C (dose: 32.0 mg/kg/injection, schedule: Q04DX003 (ip), vehicle: saline): 153 % of control
- T/C (dose: 32.0 mg/kg/injection, schedule: Q08DX002 (ip), vehicle: acid diluted with saline): 196 % of control
- T/C (dose: 50.0 mg/kg/injection, schedule: Q01DX001 (ip), vehicle: water): 151 % of control
- T/C (dose: 64.0 mg/kg/injection, schedule: Q01DX001 (ip), vehicle: acid diluted with saline): 154 % of control
- T/C (dose: 64.0 mg/kg/injection, schedule: Q01DX001 (ip), vehicle: saline): 151 % of control
- T/C (dose: 64.0 mg/kg/injection, schedule: Q01DX001 (oral), vehicle: acid diluted with saline): 109 % of control
- T/C (dose: 64.0 mg/kg/injection, schedule: Q01DX001 (oral), vehicle: saline): 116 % of control
- T/C (dose: 64.0 mg/kg/injection, schedule: Q01DX001 (sc), vehicle: acid diluted with saline): 114 % of control
- T/C (dose: 64.0 mg/kg/injection, schedule: Q01DX009 (oral), vehicle: acid diluted with saline): 100 % of control
- T/C (dose: 64.0 mg/kg/injection, schedule: Q01DX009 (oral), vehicle: saline): 112 % of control
- T/C (dose: 64.0 mg/kg/injection, schedule: Q02DX009 (ip), vehicle: saline): 89 % of control
- T/C (dose: 64.0 mg/kg/injection, schedule: Q04DX003 (ip), vehicle: saline): 213 % of control
- T/C (dose: 64.0 mg/kg/injection, schedule: Q08DX002 (ip), vehicle: acid diluted with saline): 178 % of control
- T/C (dose: 64.0 mg/kg/injection, schedule: Q08DX002 (ip), vehicle: saline): 179 % of control
- T/C (dose: 128.0 mg/kg/injection, schedule: Q01DX001 (oral), vehicle: acid diluted with saline): 105 % of control
- T/C (dose: 128.0 mg/kg/injection, schedule: Q01DX001 (oral), vehicle: saline): 106 % of control
- T/C (dose: 128.0 mg/kg/injection, schedule: Q01DX009 (oral), vehicle: acid diluted with saline): 115 % of control
- T/C (dose: 128.0 mg/kg/injection, schedule: Q01DX009 (oral), vehicle: saline): 112 % of control
- T/C (dose: 128.0 mg/kg/injection, schedule: Q08DX002 (ip), vehicle: saline): 106 % of control
- T/C (dose: 256.0 mg/kg/injection, schedule: Q01DX001 (oral), vehicle: acid diluted with saline): 96 % of control
- T/C (dose: 256.0 mg/kg/injection, schedule: Q01DX001 (oral), vehicle: saline): 116 % of control
- T/C (dose: 512.0 mg/kg/injection, schedule: Q01DX001 (oral), vehicle: saline): 97 % of control
